Test results reported in US20230391772A1, “METHODS AND COMPOSITIONS FOR TARGETED PROTEIN DEGRADATION” (Ranok Therapeutics (Hangzhou) Co. Ltd., priority 2020, published 2023).

How the values were obtained:
HSP90a protein = target: T1, HSP90a protein (Homo sapiens, UniProt P07900); assay: HSP90α-binding fluorescent polarization (FP) assay, FITC-geldanamycin probe; details: FP competition with FITC-geldanamycin, 5 nM, 120 min at 25° C.
T1 construct: purchased BPS Bioscience 50298
Procedure: HSP90α-Binding Fluorescent Polarization (FP) Assay
Binding of test compounds to HSP90a protein was measured by fluorescent polarization (FP) using the HSP90a (N-terminal) Assay Kit (BPS Bioscience, #50298), following the manufacturer's instructions, except as noted. Fluorescently labeled HSP90-binding compounds, either the provided FITC-geldanamycin (5 nM final concentration) or RNK04010, a triazolone-based HSP90 binding small molecule labeled with BODIPY through a piperizine-phenyl linker (5 nM final concentration) were employed. A 2.5-fold serial dilution of each test compound ranging from 20 μM to 5.2 nM was assayed for binding to HSP90a. After the final step of adding HSP90a protein to each assay well, plates were mixed by brief shaking, incubated at 25° C. for 120 min for FITC-geldanamycin or 300 min for RNK04010, and fluorescence was measured using a PerkinElmer EnVision Plate Reader.

KRAS(G12C) [1] = target: T2, KRAS(G12C) (Homo sapiens, UniProt P01116, G12C); assay: KRAS(G12C) Western blot protein degradation assay in MIA PaCa-2 cells; format: cell-based; set-up: host or cells: LU65A; details: 48 hr; for inhibition at 0.1562 µM: 156.2 nM; for inhibition at 0.3125 µM: 312.5 nM; for inhibition at 0.625 µM: 625 nM; for inhibition at 1.25 µM: 1250 nM; for inhibition at 2.5 µM: 2500 nM; for inhibition at 5 µM: 5000 nM; for inhibition at 10 µM: 10,000 nM
[2] = test system: MIA PaCa-2 human pancreatic carcinoma; assay: MIA PaCa-2 CCK-8 proliferation assay; format: cell-based; details: Homo sapiens, MIA PaCa-2, 72 h, MIA PaCa-2 cells
Method in brief: (§1)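 Compounds were tested as a 3-fold series from 20 μM down to 1.02 nM in CCK-8 absorbance assays. The lines used were NCI-H23 and NCI-H358, each with 1 KRAS(G12C) copy, and MIA PaCa-2 with 2 copies. Inhibition was derived relative to DMSO controls, with a no-cell blank subtracted.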

[3] = test system: NCI-H358 human non-small cell lung cancer; assay: NCI-H358 CCK-8 proliferation assay; format: cell-based; details: NCI-H358 cells, 72 hr
Method in brief: as §1

KRAS(G12C) [4] = target: T2, KRAS(G12C); assay: KRAS(G12C)/SOS1 homogeneous time-resolved fluorescence (HTRF) assay; set-up: purchased Cisbio 63ADK000CB16PEG; details: absence of GTP, 4° C. for 3 hr, read-out: KRAS (G12C) binding
Method in brief: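 Three-hour incubation at 4 °C of 3-fold compound dilutions (lowest 1.02 nM) with KRAS(G12C), SOS1 and detection reagents, GTP absent. Disruption of the KRAS(G12C)/SOS1 complex detected by time-resolved fluorescence.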

T2 sequence (P01116 1-188 isoform P01116-2 G12C): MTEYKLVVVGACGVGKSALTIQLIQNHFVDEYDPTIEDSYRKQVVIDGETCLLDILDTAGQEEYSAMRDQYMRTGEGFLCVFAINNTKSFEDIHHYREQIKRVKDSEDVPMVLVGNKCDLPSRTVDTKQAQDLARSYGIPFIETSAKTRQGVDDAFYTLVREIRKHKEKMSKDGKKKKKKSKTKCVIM

SMILES	IC50 (HSP90a protein)	EC50 [2]	EC50 [3]	other results
C=C(F)C(=O)N1CCN(c2nc(N3CCN(Cc4ccc(-n5c(O)nnc5-c5cc(CC)c(O)cc5O)cc4)CC3)nc3c2CCN(c2cccc4cccc(Cl)c24)C3)C[C@@H]1CC#N [Compound 143, (S)-2-(4-(7-(8-chloronaphthalen-1-yl)-2-(4-(4-(3-(5-ethyl-2,4-dihydroxyphenyl)-5-hydroxy-4H-1,2,4-triazol-4-yl)benzyl)piperazin-1-yl)-5,6,7,8-tetrahydropyrido[3,4-d]pyrimidin-4-yl)-1-(2-fluoroacryloyl)piperazin-2-yl)acetonitrile]	> 1000 nM		> 1000 nM	
CCC(=O)N1CCN(c2nc(OCC3CN(C(=O)C4CCN(Cc5ccc(-n6c(O)nnc6-c6cc(C(C)C)c(O)cc6O)cc5)CC4)C3)nc3c2CCN(c2cccc4cccc(Cl)c24)C3)C[C@@H]1CC#N [Compound 146, (S)-2-(4-(7-(8-chloronaphthalen-1-yl)-2-((1-(1-(4-(3-(2,4-dihydroxy-5-isopropylphenyl)-5-hydroxy-4H-1,2,4-triazol-4-yl)benzyl)piperidine-4-carbonyl)azetidin-3-yl)methoxy)-5,6,7,8-tetrahydropyrido[3,4-d]pyrimidin-4-yl)-1-propionylpiperazin-2-yl)acetonitrile]	100 to 1000 nM		100 to 1000 nM	
C=C(F)C(=O)N1CCN(c2nc(OC[C@@H]3CCN(C(=O)C4CCN(Cc5ccc(-n6c(O)nnc6-c6cc(C(C)C)c(O)cc6O)cc5)CC4)C3)nc3c2CCN(c2cccc4cccc(Cl)c24)C3)C[C@@H]1CC#N [Compound 145, 2-((S)-4-(7-(8-chloronaphthalen-1-yl)-2-(((R)-1-(1-(4-(3-(2,4-dihydroxy-5-isopropylphenyl)-5-hydroxy-4H-1,2,4-triazol-4-yl)benzyl)piperidine-4-carbonyl)pyrrolidin-3-yl)methoxy)-5,6,7,8-tetrahydropyrido[3,4-d]pyrimidin-4-yl)-1-(2-fluoroacryloyl)piperazin-2-yl)acetonitrile, acetic acid]	100 to 1000 nM	100 to 1000 nM	100 to 1000 nM	
CCC(=O)N1CCN(c2nc(OC[C@@H]3CCCN3C(=O)C3CCN(Cc4ccc(-n5c(O)nnc5-c5cc(C(C)C)c(O)cc5O)cc4)CC3)nc3c2CCN(c2cccc4cccc(Cl)c24)C3)C[C@@H]1CC#N [Compound 140, 2-((S)-4-(7-(8-chloronaphthalen-1-yl)-2-(((S)-1-(1-(4-(3-(2,4-dihydroxy-5-isopropylphenyl)-5-hydroxy-4H-1,2,4-triazol-4-yl)benzyl)piperidine-4-carbonyl)pyrrolidin-2-yl)methoxy)-5,6,7,8-tetrahydropyrido[3,4-d]pyrimidin-4-yl)-1-propionylpiperazin-2-yl)acetonitrile]	100 to 1000 nM		100 to 1000 nM	
CCC(=O)N1CCN(c2nc(N3CCC(CN4CCN(Cc5ccc(-n6c(O)nnc6-c6cc(CC)c(O)cc6O)cc5)CC4)CC3)nc3c2CCN(c2cccc4cccc(Cl)c24)C3)C[C@@H]1CC#N [Compound 133, (S)-2-(4-(7-(8-chloronaphthalen-1-yl)-2-(4-((4-(4-(3-(5-ethyl-2,4-dihydroxyphenyl)-5-hydroxy-4H-1,2,4-triazol-4-yl)benzyl)piperazin-1-yl)methyl)piperidin-1-yl)-5,6,7,8-tetrahydropyrido[3,4-d]pyrimidin-4-yl)-1-propionylpiperazin-2-yl)acetonitrile, trifluoroacetic acid]	100 to 1000 nM		100 to 1000 nM	

Continued, in another order:

IC50 (HSP90a protein)	EC50 [2]	EC50 [3]	SMILES	other results
100 to 1000 nM	< 100 nM		C=C(F)C(=O)N1CCN(c2nc(OC[C@@H]3CCN(C(=O)C4CCN(Cc5ccc(-n6c(C(=O)NCC(F)(F)F)nnc6-c6cc(C(C)C)c(O)cc6O)cc5)CC4)C3)nc3c2CCN(c2cccc4cccc(Cl)c24)C3)C[C@@H]1CC#N [Compound 168, 4-(4-((4-((R)-3-(((7-(8-chloronaphthalen-1-yl)-4-((S)-3-(cyanomethyl)-4-(2-fluoroacryloyl)piperazin-1-yl)-5,6,7,8-tetrahydropyrido[3,4-d]pyrimidin-2-yl)oxy)methyl)pyrrolidine-1-carbonyl)piperidin-1-yl)methyl)phenyl)-5-(2,4-dihydroxy-5-isopropylphenyl)-N-(2,2,2-trifluoroethyl)-4H-1,2,4-triazole-3-carboxamide]	inhibition at 0.1562 µM (KRAS(G12C) [1]): < 33%; inhibition at 0.3125 µM (KRAS(G12C) [1]): < 33%; inhibition at 0.625 µM (KRAS(G12C) [1]): < 33%; inhibition at 1.25 µM (KRAS(G12C) [1]): 33 to 66%; inhibition at 2.5 µM (KRAS(G12C) [1]): 33 to 66%; inhibition at 5 µM (KRAS(G12C) [1]): 33 to 66%; inhibition at 10 µM (KRAS(G12C) [1]): 33 to 66%
100 to 1000 nM	> 1000 nM	100 to 1000 nM	C=CC(=O)N1CCN(c2nc(OC[C@@H]3CCCN3C(=O)C3CCN(Cc4ccc(-n5c(O)nnc5-c5cc(C(C)C)c(O)cc5O)cc4)CC3)nc3c2CCN(c2cccc4cccc(Cl)c24)C3)C[C@@H]1CC#N [Compound 139, 2-((S)-1-acryloyl-4-(7-(8-chloronaphthalen-1-yl)-2-(((S)-1-(1-(4-(3-(2,4-dihydroxy-5-isopropylphenyl)-5-hydroxy-4H-1,2,4-triazol-4-yl)benzyl)piperidine-4-carbonyl)pyrrolidin-2-yl)methoxy)-5,6,7,8-tetrahydropyrido[3,4-d]pyrimidin-4-yl)piperazin-2-yl)acetonitrile]	inhibition at 0.1562 µM (KRAS(G12C) [1]): < 33%; inhibition at 0.3125 µM (KRAS(G12C) [1]): < 33%; inhibition at 0.625 µM (KRAS(G12C) [1]): < 33%; inhibition at 1.25 µM (KRAS(G12C) [1]): < 33%; inhibition at 2.5 µM (KRAS(G12C) [1]): < 33%; inhibition at 5 µM (KRAS(G12C) [1]): < 33%; inhibition at 10 µM (KRAS(G12C) [1]): < 33%; IC50 (KRAS(G12C) [4]): > 1000 nM
100 to 1000 nM		100 to 1000 nM	C=C(F)C(=O)N1CCN(c2nc(N3CCC(CN4CCC(Cc5ccc(-n6c(O)nnc6-c6cc(C(C)C)c(O)cc6O)cc5)CC4)CC3)nc3c2CCN(c2cccc4cccc(Cl)c24)C3)C[C@@H]1CC#N [Compound 137, (S)-2-(4-(7-(8-chloronaphthalen-1-yl)-2-(4-((4-(4-(3-(2,4-dihydroxy-5-isopropylphenyl)-5-hydroxy-4H-1,2,4-triazol-4-yl)benzyl)piperidin-1-yl)methyl)piperidin-1-yl)-5,6,7,8-tetrahydropyrido[3,4-d]pyrimidin-4-yl)-1-(2-fluoroacryloyl)piperazin-2-yl)acetonitrile, acetic acid]	
< 100 nM	100 to 1000 nM	100 to 1000 nM	CCC(=O)N1CCN(c2nc(OCC3CCN(C(=O)C4CCN(Cc5ccc(-n6c(O)nnc6-c6cc(C(C)C)c(O)cc6O)cc5)CC4)CC3)nc3c2CCN(c2cccc4cccc(Cl)c24)C3)C[C@@H]1CC#N [Compound 147, (S)-2-(4-(7-(8-chloronaphthalen-1-yl)-2-((1-(1-(4-(3-(2,4-dihydroxy-5-isopropylphenyl)-5-hydroxy-4H-1,2,4-triazol-4-yl)benzyl)piperidine-4-carbonyl)piperidin-4-yl)methoxy)-5,6,7,8-tetrahydropyrido[3,4-d]pyrimidin-4-yl)-1-propionylpiperazin-2-yl)acetonitrile]	
< 100 nM		> 1000 nM	CCC(=O)N1CCN(c2nc(OC[C@@H]3CCN3C(=O)C3CCN(Cc4ccc(-n5c(O)nnc5-c5cc(C(C)C)c(O)cc5O)cc4)CC3)nc3c2CCN(c2cccc4cccc(Cl)c24)C3)C[C@@H]1CC#N [Compound 152, 2-((S)-4-(7-(8-chloronaphthalen-1-yl)-2-(((S)-1-(1-(4-(3-(2,4-dihydroxy-5-isopropylphenyl)-5-hydroxy-4H-1,2,4-triazol-4-yl)benzyl)piperidine-4-carbonyl)azetidin-2-yl)methoxy)-5,6,7,8-tetrahydropyrido[3,4-d]pyrimidin-4-yl)-1-propionylpiperazin-2-yl)acetonitrile, trifluoroacetic acid]	
